Source: ChEMBL document CHEMBL1201862, “PubChem BioAssay data set” (2004)
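Cells were grown in 96-well plates and exposed to each compound for 48 hours at five concentrations; endpoints were interpolated linearly between bracketing concentrations, or set to the highest concentration if not reached. GI50 is the concentration that inhibits growth by half.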 The source made the active and inactive calls. No stated cut-off is given here; in the data, active = GI50 up to about 1.1 µM and inactive = higher.

Tests used:
Assay in all cases: NCI anticancer screen, dose series, 48 h
HCT-116 = system: HCT-116
CAKI-1 = system: CAKI-1
NCI-H226 = system: NCI-H226
M14 = system: M14
NCI/ADR-RES = system: NCI/ADR-RES
OVCAR-5 = system: OVCAR-5
SNB-19 = system: SNB-19
UACC-62 = system: UACC-62
MDA-MB-231 = system: MDA-MB-231
NCI-H522 = system: NCI-H522
HOP-62 = system: HOP-62
LOX IMVI = system: LOX IMVI
HOP-92 = system: HOP-92
NCI-H23 = system: NCI-H23
KM12 = system: KM12
EKVX = system: EKVX
T47D = system: T47D
BT-549 = system: BT-549
ACHN = system: ACHN

Row | SMILES | GI50 (HCT-116) | GI50 (CAKI-1) | GI50 (NCI-H226) | GI50 (M14) | GI50 (NCI/ADR-RES) | GI50 (OVCAR-5) | GI50 (SNB-19) | GI50 (UACC-62) | GI50 (MDA-MB-231) | GI50 (NCI-H522) | GI50 (HOP-62) | GI50 (LOX IMVI) | GI50 (HOP-92) | GI50 (NCI-H23) | GI50 (KM12) | GI50 (EKVX) | GI50 (T47D) | GI50 (BT-549) | GI50 (ACHN)
1 | CN(C)c1ccc(/C=N\NC(=O)CSCC(=O)N/N=C/c2ccc(N(C)C)cc2)cc1 | 46.9 µM (inactive) | 64.1 µM (inactive) | 34.2 µM (inactive) | 33.9 µM (inactive) | 36 µM (inactive) | 60.5 µM (inactive) | > 100 µM (inactive) | 35.1 µM (inactive) | 13.7 µM (inactive) | 27.6 µM (inactive) | 62.8 µM (inactive) | 33.2 µM (inactive) | > 100 µM (inactive) | 49.9 µM (inactive) | 41.2 µM (inactive) | 44.5 µM (inactive) | 23.8 µM (inactive) | 23.8 µM (inactive) | 43.4 µM (inactive)
2 | COc1cc(C2S/C(=C/c3ccccc3)C(=O)N2c2cc(Cl)ccc2Cl)cc(OC)c1OC (centres undefined) | 12.5 µM (inactive) | 39.2 µM (inactive) | 40.4 µM (inactive) | 19.6 µM (inactive) | 28.2 µM (inactive) |  | 71.9 µM (inactive) | 31.8 µM (inactive) | 40.3 µM (inactive) | 21.9 µM (inactive) | 46.7 µM (inactive) | 15.8 µM (inactive) | 51.2 µM (inactive) | 49.4 µM (inactive) | 19 µM (inactive) | 24.2 µM (inactive) | 53.7 µM (inactive) | 39.5 µM (inactive) | 35.8 µM (inactive)
3 | Nc1nc(Cl)cc(NCC2(CO)CC(=O)C2)n1 | > 100 µM (inactive) | > 100 µM (inactive) | > 100 µM (inactive) |  | > 100 µM (inactive) | > 100 µM (inactive) | > 100 µM (inactive) | 86.7 µM (inactive) | > 100 µM (inactive) | > 100 µM (inactive) | > 100 µM (inactive) | > 100 µM (inactive) | > 100 µM (inactive) | > 100 µM (inactive) | > 100 µM (inactive) | 98.6 µM (inactive) | 21.2 µM (inactive) | > 100 µM (inactive) | > 100 µM (inactive)
4 | COc1cc(C2SCC(=O)N2c2ccc(-n3c(-c4ccccc4)nc4ccccc4c3=O)cc2)cc(OC)c1OC (centres undefined) | > 100 µM (inactive) | > 100 µM (inactive) |  |  | > 100 µM (inactive) | > 100 µM (inactive) | > 100 µM (inactive) | 41.2 µM (inactive) | > 100 µM (inactive) | > 100 µM (inactive) | > 100 µM (inactive) | > 100 µM (inactive) | 28.6 µM (inactive) | > 100 µM (inactive) | 97.3 µM (inactive) | > 100 µM (inactive) | 27.9 µM (inactive) | > 100 µM (inactive) | > 100 µM (inactive)
5 | O=c1c2c3c(sc2nc2n1N=CN(c1ccccc1)C2)CCCC3 | > 100 µM (inactive) | > 100 µM (inactive) | > 100 µM (inactive) | > 100 µM (inactive) | > 100 µM (inactive) | > 100 µM (inactive) | > 100 µM (inactive) | > 100 µM (inactive) | > 100 µM (inactive) | > 100 µM (inactive) | > 100 µM (inactive) | > 100 µM (inactive) | > 100 µM (inactive) | > 100 µM (inactive) | > 100 µM (inactive) | > 100 µM (inactive) | > 100 µM (inactive) | > 100 µM (inactive) | > 100 µM (inactive)
6 | CCOC(=O)c1cc2c([nH]1)C(=O)CC1=C2CCN1Cc1ccccc1 | 13 µM (inactive) | 3.46 µM (inactive) | 0.585 µM (active) |  | 20.7 µM (inactive) |  | 17.5 µM (inactive) | 14.8 µM (inactive) | 13.2 µM (inactive) | 17.9 µM (inactive) |  | 13.3 µM (inactive) | 14.3 µM (inactive) | 16.1 µM (inactive) | 17.6 µM (inactive) | 19.8 µM (inactive) | 2.45 µM (inactive) | 18.1 µM (inactive) | 12.9 µM (inactive)
7 | C[C@]12CC[C@@H]3c4cc(C=O)c(OCc5ccccc5)cc4CC[C@H]3[C@@H]1CCC2OCc1ccccc1 (some centres undefined) | > 100 µM (inactive) | > 100 µM (inactive) | 32.8 µM (inactive) | > 100 µM (inactive) | > 100 µM (inactive) | > 100 µM (inactive) |  | > 100 µM (inactive) | > 100 µM (inactive) | 80 µM (inactive) | > 100 µM (inactive) | > 100 µM (inactive) | > 100 µM (inactive) | 89.9 µM (inactive) | > 100 µM (inactive) | > 100 µM (inactive) | > 100 µM (inactive) | > 100 µM (inactive) | 95.9 µM (inactive)
8 | Oc1nc(S)nc(SCc2c(Cl)c(Cl)c(Cl)c(Cl)c2Cl)n1 | 39.8 µM (inactive) | 30.6 µM (inactive) | > 69.8 µM (inactive) | 60.8 µM (inactive) | > 58.5 µM (inactive) | 98.2 µM (inactive) | > 100 µM (inactive) | > 92.7 µM (inactive) | > 100 µM (inactive) | 18.2 µM (inactive) | 38.7 µM (inactive) | > 63.1 µM (inactive) | 77.8 µM (inactive) | 55.7 µM (inactive) | 89.9 µM (inactive) | 40.9 µM (inactive) | 27.9 µM (inactive) | > 80.2 µM (inactive) | 77.1 µM (inactive)
